# Measurements as given in patent US7632825B2, “Methods of decreasing or preventing pain using spicamycin derivatives” (Bayer Pharmaceuticals Corporation, priority 2000, dated 2009).
# Columns and labels:
# [1] = compared with KRN5500; cited from earlier work
# [2] = tested on: primary afferent-evoked excitatory postsynaptic currents (EPSCs) from lamina II; test: Electrophysiological recording of primary afferent-evoked EPSCs in lumbar spinal cord slices from spared-nerve injury animals; format: cell-based
# Source text: Electrophysiological recordings were done on 650 μm thick transverse slices of lumbar spinal cord (from spared-nerve injury animals) with attached L4 dorsal root that were perfused with ice cold Krebs' solution ([in mM]: NaCl 117, KCl 3.6, CaCl2 2.5, MgCl2 1.2, NaH2PO4 1.2, NaHCO3 25 and glucose 11) saturated with 95% O2 and 5% CO2. To record primary afferent-evoked excitatory postsynaptic currents (EPSCs) from lamina II, whole cells were patch-clamped and then voltage-clamped at −70 mV. Orthodromicstimulation of L4 dorsal root was performed with a suction electrode attached to a constant current stimulator and graded intensity stimulation sufficient to recruit different afferent populations (Aβ, Aδ, and C-fibers) was used. Resistance of patch pipettes were 5-10 MW when filled with (in mM): Cs2SO4 110, CaCl2 0.5, MgCl2 2, EGTA 5, HEPES 5, TEA 5, ATP-Mg salt 5. Currents were amplified (Axopatch 200A), filtered at 2 kHz, digitized at 5 kHz and analyzed using pCLAMP 6 (Axon Instruments). SAN-Gly was dissolved in ice cold KREBs and bath-applied at two concentrations ([…]). […] In addition, as expected, the same concentration of SAN had no effect.
# Male Sprague-Dawley rats = test: Mechanical allodynia (von Frey filaments) in rat segmental spinal nerve injury and chronic constriction nerve injury models, results combined; format: in vivo; settings: single injection
# Experimental: Male Sprague-Dawley rats (Charles River Laboratories) weighing 150-200 g were used to evaluate the analgesic properties of the SAN-Gly formulation. The animals were housed in groups of three in plastic cages with soft bedding and under a 12 hour light/dark cycle. Food and water were available ad libitum. After one week of acclimatization to the laboratory conditions, all animals were tested to establish a baseline mechanical allodynia.
# Since different animal models of pain can provide different experimental results, SAN-Gly was tested using two rat models. All experiments were performed in a single-blinded fashion, i.e., the experimenter was not aware of which rats received the control saline and which rats received the SAN-Gly formulation.
# One rat model used was based on an experimentally produced segmental spinal nerve injury (Kim et al., Pain 50:355-363, 1992). One week after the acclimatization to laboratory conditions, baseline measurements were recorded and surgery was performed as described in Kim et al., supra. Rats were anesthetized with halothane in oxygen and placed in a prone position. A midline skin incision at L4-S2 was made, and paraspinal muscles were separated from the spinous processes in the L4-S2 region. […]
# The rats were allowed to recover from surgery for at least a week. […] Both groups were then monitored for allodynia at various time points after surgery. […]
# [3] = 100 mM bath-applied, whole-cell patch clamp at -70 mV, observed in three out of five cells
smiles,measurement,setting,value
"NCC(=O)N[C@@H]1[C@@H](O)[C@@H](O)[C@@H](Nc2ncnc3[nH]cnc23)O[C@H]1[C@@H](O)CO [SAN-Gly, 4′-N-glycyl spicamycin amino nucleoside]",cytotoxicity relative to water-insoluble spicamycin derivatives such as KRN5500,[1],less cytotoxic
same,amplitude of EPSCs,[2]; [3],reduced the amplitude
same,latency of EPSCs,[2]; [3],increased the latency
same,effect on EPSCs upon washout of the drug,[2]; after 100 mM bath application,reversed upon washout
same,recovery towards baseline pain behavior,"Male Sprague-Dawley rats; 100 mg/kg body weight, single bolus in the tail vein, both animal models combined (FIG. 1)",60%
same,persistence of increased pain tolerance,"Male Sprague-Dawley rats; 100 mg/kg, tail vein, days after surgery as printed, both models combined",at least 7 days
